In patent US20050106305A1, “Beverage compositions comprising monatin and methods of making same” (Cargill, Inc., priority 2003, published 2005):
Each block holds one compound with its values, some of them ahead of it. Where a SMILES comes first, the peptide text is derived from it.

Experiments:
[1] = Stability of monatin at 80° C. and neutral pH, LC-MS; assay type: physicochemical; conditions: 75 ppm
Description: A 100 milliliter solution of 75 ppm monatin at pH 7 was used as a stock solution. The synthetic monatin sample contained approximately 96% of the 2R,4R/2S,4S enantiomeric pair and 4% of the 2R,4S/2S,4R enantiomeric pair. Samples were incubated at 80° C. and pH 7 for the duration of the experiment and samples were withdrawn at 0, 1, 2, 3, 4 hours and 1, 2, 4, 7, 14, 21 and 35 days. All experimental conditions were run in duplicate.
Separation and Quantification Using LC-MS Using Reverse Phase Chromatography—A response curve was established for both detected diastereomer peaks of the synthetic monatin. A range of 5-150 ppm was bracketed with the synthetic monatin standard dissolved in DI water. Separation of the two diastereomer peaks was accomplished using a 3.9×150 mm Novapak C18 (Waters Corporation) HPLC column. Ultraviolet-Visible (UV) and Mass Spectrometer (MS) detectors were used in series for detection and quantitation. Monatin and its lactone peak each have a UVmax at 279 nm that aided in precise detection. Quantification was done by acquiring Selected Ion Monitoring (SIM) scan of 293.3 m/z and 275.3 m/z in positive-ion electrospray mode.

[2] = Equisweet blends of monatin with carbohydrate sweeteners (parity to 10.0% sucrose); assay type: in vivo; conditions: for Effective Relative Sweetness Intensity (x sucrose) of Monatin: blend with sucrose equisweet to 10.0% sucrose
Description: Blends of monatin (as described in Example 14) with sucrose, HFCS (55% fructose), and glucose syrup (63 dextrose equivalents, DE) equisweet to 10.0% (w/v) sucrose were prepared. For each carbohydrate sweetener, the monatin:sweetener ratio was adjusted so that monatin delivered 25, 50, and 75% of the total sweetness. Sweetness parity to 10.0% (w/v) sucrose was determined using the sweetness estimation method described in Example 14. As in Example 14, all assessments were carried out in the pH 3.2 model soft drink system, using 6-8 panelists, each tasting in duplicate. Results are presented as Tables 7-9.

[3] = Time intensity profile in a soft drink system; assay type: in vivo; conditions: 80 ppm monatin, 10.0% sucrose, 200 ppm sucralose, pH 3.2 model soft drink
Description: Solutions of 80 ppm monatin (racemic mix of monatin described in Example 14), 10.0% (w/v) sucrose and 200 ppm sucralose were prepared in the pH 3.2 model soft drink system described in Example 14. The time intensity profile of these solutions then was assessed using the following procedure. Six panelists were included in the study. These panelists were screened for their general sensory acuity and selected for their sensitivity to sweetness intensity and sweetness quality differences. All were experienced in methods of sweetener assessment and had received special training in time intensity evaluations. Training sessions were carried out initially to familiarize the panel with the method of evaluation and scoring the samples over time using a computerized data entry system.
Samples of each solution (13 mL) were coded and presented individually to panelists, in random order. For each panelist, immediately after swallowing, the computer recorded timed intensity readings on the scale of 0-100 each second, up to 60 seconds. Each solution was evaluated in duplicate.

[4] = Sweetness dose response of monatin and saccharin, model system pH 3.2; assay type: in vivo
Description: Sweetness of monatin and saccharin was assessed using 20 trained sensory evaluators, making judgements in duplicate. Test and reference solutions were prepared in citric/citrate buffer at pH 3.2. […] The plateau above 10% SEV indicates absence/low levels of “mixture-suppressing” off-tastes and aftertastes. The shape of monatin's dose-response curve is similar to those of aspartame, sucralose and alitame, all of which are “quality” sweeteners.

[5] = Stability when exposed to ultra violet (UV) light; assay type: physicochemical; conditions: phosphoric/citrate buffer at pH 3.0, ambient temperature; data not shown
Description: UV instability can be accelerated by certain flavor systems. UV-absorbing packaging material, colorants and/or antioxidants can protect against UV light-induced flavor interactions in monatin-containing beverages.

[6] = Sensory stability of monatin in water; assay type: physicochemical
Description: The sensory stability of monatin (racemic mix described in Example 14) in water (8% SEV) was studied after storage at room temperature for 0 to 6 hours. The SEV was monitored (as described above in Example 14) at either 0-1 hours or 5-6 hours after preparing a monatin solution.

[7] = Sensory evaluation of sweeteners in coffee and iced tea; assay type: in vivo; conditions: Coffee, 200 mL serving; aspartame 250 ppm, sucralose 82 ppm, R,R monatin 25 ppm + maltodextrin or erythritol (1 g, 0.5%)
Description: Monatin sweetener formulations, comprising R,R monatin or R,R monatin/erythritol combinations, were assessed relative to other known sweeteners (aspartame and sucralose) in coffee and iced tea. The key sensory parameters assessed included sweetness quality, aftertaste, bitter taste and its aftertaste. Qualitative evaluation was carried out.
Standard coffee was used in which to evaluate sweetener performance (Table 17).
Sweeteners were added to coffee at the following concentrations:
An ice tea formulation was developed to evaluate sweetener performance (Table 18).
Sweeteners were added to tea at the following concentrations:
The evaluation of these coffee and tea drinks was carried out by a panel (n=6) of experienced sensory evaluators who evaluated the coffee products on one tasting occasion and the tea products on a subsequent occasion.

[8] = sole sweetener in the model system (pH 3.2)

change in concentration of monatin or lactones thereof ([1]; 80° C. and pH 7, up to 35 days): no change in concentration
degree of degradation of monatin ([1]; 80° C., pH 7, after 7-35 days): insignificant
loss of monatin SEV ([6]; 8% SEV, after 6 hours in room temperature): no detectable loss
lactonization (LC/MS) ([6]; room temperature, 0 to 6 hours): no lactonization
Compound: NC(CC(O)(Cc1c[nH]c2ccccc12)C(=O)O)C(=O)O (racemic) [Monatin, 2-hydroxy-2-(indol-3-ylmethyl)-4-aminoglutaric acid]
Effective Relative Sweetness Intensity (x sucrose) of Monatin ([2]; sweetness contribution of monatin 25%, sucrose 7.5%, monatin 12.3 ppm): 2000 x sucrose
Effective Relative Sweetness Intensity (x sucrose) of Monatin ([2]; sweetness contribution of monatin 50%, sucrose 5.0%, monatin 30.8 ppm): 1600 x sucrose
Effective Relative Sweetness Intensity (x sucrose) of Monatin ([2]; sweetness contribution of monatin 75%, sucrose 2.5%, monatin 50.3 ppm): 1500 x sucrose
sweetness intensity when blended with carbohydrate sweeteners ([2]; blended with carbohydrate sweeteners): 1500-2000 × sucrose
Area Under Curve [3]: 117.3 unit × s
Rate of Decline [3]: 2.2 unit/s
Rate of Onset [3]: 14.9 unit/s
Time for Sweetness to Decline to Half Maximum Value [3]: 34.2 s
Time to Half Maximum Sweetness [3]: 2.4 s
Time to Maximum Sweetness [3]: 9.0 s
Intensity of Maximum Sweetness ([3]; scale 0-100): 66.6 unit
Aftertaste [4, 8]: slight “aspartame-like” aftertaste
sweet taste decay [4, 8]: quite rapid
sweet taste onset [4, 8]: slight delay
cooling sensation ([4]; sole sweetener, un-flavored systems (pH 3.2)): residual cooling sensation
stability when exposed to ultra violet (UV) light [5]: similarly stable or slightly more stable than aspartame

Compound: COC(=O)[C@H](Cc1ccccc1)NC(=O)[C@@H](N)CC(=O)O [Aspartame, aspartame] (H-Asp-Phe-OMe)
Comments (sensory evaluation) [7]: Balanced sweetness profile. Very low level
